Measured values: PubChem BioAssay (NCI)
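A five-concentration, 48-hour dose response in 96-well plates underlies each endpoint, interpolated linearly between surrounding concentrations. GI50 = concentration required for 50% inhibition of growth. At the TGI there is no net growth.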

Columns and labels:
Test in all cases: NCI-60 cell line screen, 48 h
BT-549 breast = test system: BT-549 breast
MDA-MB-435 = test system: MDA-MB-435
M14 melanoma = test system: M14 melanoma
T-47D breast = test system: T-47D breast
MDA-N = test system: MDA-N
ACHN renal = test system: ACHN renal
DU-145 prostate = test system: DU-145 prostate
PC-3 prostate = test system: PC-3 prostate
TK-10 renal = test system: TK-10 renal
SNB-78 CNS = test system: SNB-78 CNS
DLD-1 colon = test system: DLD-1 colon
MCF7 breast = test system: MCF7 breast
M19-MEL melanoma = test system: M19-MEL melanoma
NCI-H226 lung = test system: NCI-H226 lung

Question: What does the source list for `NC(CCP(=O)(O)CCC1C=CC=CC1)C(=O)O` (stereo not given)?
Answer: TGI (BT-549 breast): > 100 µM; TGI (MDA-MB-435): > 100 µM; TGI (M14 melanoma): > 100 µM; TGI (T-47D breast): > 100 µM; TGI (MDA-N): > 100 µM; TGI (ACHN renal): > 100 µM; TGI (DU-145 prostate): > 100 µM; TGI (PC-3 prostate): > 100 µM; TGI (TK-10 renal): > 100 µM

Question: What does the source list for `O=C(O)C1Cc2c([nH]c3ccccc23)C=N1` (stereo not given)?
Answer: TGI (SNB-78 CNS): > 100 µM; TGI (DLD-1 colon): > 100 µM; TGI (MCF7 breast): > 100 µM; TGI (M19-MEL melanoma): > 100 µM

Question: Which results are given for `CC12CCC(C(=O)N3CC=CCC3)(OC1=O)C2(C)C` (stereo not given)?
Answer: TGI (SNB-78 CNS): > 100 µM; TGI (DLD-1 colon): > 100 µM; TGI (NCI-H226 lung): > 100 µM; TGI (MCF7 breast): > 100 µM; TGI (M19-MEL melanoma): > 100 µM

Question: With `COc1cc(C2=C(C#N)C(N)OC3=C2COc2ccccc23)cc(OC)c1OC` (stereo not given) as the compound, how does the TGI (BT-549 breast) read?
Answer: The TGI was over 100 µM.

Question: And the TGI (MDA-MB-435)?
Answer: The TGI was over 100 µM.

Question: And the TGI (M14 melanoma)?
Answer: Its TGI is over 100 µM.

Question: And the TGI (MDA-N)?
Answer: The TGI was over 100 µM.

Question: What about the TGI (ACHN renal) of the same compound?
Answer: The TGI was 32.2 µM.

Question: And the TGI (NCI-H226 lung)?
Answer: The TGI was 91.1 µM.

Question: And the TGI (MCF7 breast)?
Answer: Its TGI is over 100 µM.

Question: And the TGI (DU-145 prostate)?
Answer: The TGI was 25.8 µM.

Question: And the TGI (PC-3 prostate)?
Answer: The TGI was 50.6 µM.

Question: What about the TGI (TK-10 renal) of the same compound?
Answer: The TGI was 30.2 µM.

Question: With `Nc1ccc2c3c(n(CCCCl)c(=O)c2c1)-c1cc2c(cc1C3=O)OCO2` as the compound, how does the GI50 (MDA-MB-435) read?
Answer: The GI50 was over 100 µM.

Question: And the TGI (MDA-MB-435)?
Answer: The TGI was over 100 µM.

Question: And the GI50 (T-47D breast)?
Answer: The GI50 was over 100 µM.

Question: And the TGI (T-47D breast)?
Answer: The TGI was over 100 µM.

Question: What about the GI50 (ACHN renal) of the same compound?
Answer: The GI50 was over 100 µM.

Question: What about the TGI (ACHN renal) of the same compound?
Answer: The TGI was over 100 µM.

Question: And the GI50 (PC-3 prostate)?
Answer: Its GI50 is over 100 µM.

Question: And the TGI (PC-3 prostate)?
Answer: The TGI was over 100 µM.

Question: And the GI50 (TK-10 renal)?
Answer: The GI50 was over 100 µM.

Question: And the TGI (TK-10 renal)?
Answer: Its TGI is over 100 µM.

Question: For `CCC(=O)NC(Nc1ccc(O)cc1)(C(F)(F)F)C(F)(F)F`, which TGI (BT-549 breast) is on record?
Answer: Its TGI is over 100 µM.

Question: What about the TGI (MDA-MB-435) of the same compound?
Answer: Its TGI is 65.7 µM.

Question: And the TGI (M14 melanoma)?
Answer: Its TGI is over 100 µM.

Question: What about the TGI (T-47D breast) of the same compound?
Answer: Its TGI is over 100 µM.

Question: And the TGI (MDA-N)?
Answer: Its TGI is 35.3 µM.

Question: What about the TGI (ACHN renal) of the same compound?
Answer: Its TGI is over 100 µM.

Question: What about the TGI (NCI-H226 lung) of the same compound?
Answer: Its TGI is over 100 µM.

Question: And the TGI (MCF7 breast)?
Answer: Its TGI is over 100 µM.

Question: And the TGI (DU-145 prostate)?
Answer: Its TGI is over 100 µM.

Question: And the TGI (TK-10 renal)?
Answer: The TGI was over 100 µM.

Question: For `COC(=O)c1ccc(N=NN(C)COc2ccc([N+](=O)[O-])cc2)cc1`, which TGI (SNB-78 CNS) is on record?
Answer: Its TGI is over 100 µM.

Question: What about the TGI (DLD-1 colon) of the same compound?
Answer: Its TGI is over 100 µM.

Question: What about the TGI (NCI-H226 lung) of the same compound?
Answer: The TGI was over 100 µM.

Question: What about the TGI (MCF7 breast) of the same compound?
Answer: Its TGI is over 100 µM.

Question: And the TGI (M19-MEL melanoma)?
Answer: Its TGI is over 100 µM.

Question: With `N=C(N)c1csc([C@@H]2O[C@H](CO)[C@@H](O)[C@H]2O)n1` as the compound, how does the TGI (M14 melanoma) read?
Answer: Its TGI is over 100 µM.

Question: What about the TGI (SNB-78 CNS) of the same compound?
Answer: The TGI was over 100 µM.

Question: And the TGI (DLD-1 colon)?
Answer: The TGI was over 100 µM.

Question: What about the TGI (ACHN renal) of the same compound?
Answer: The TGI was over 100 µM.

Question: What about the TGI (NCI-H226 lung) of the same compound?
Answer: Its TGI is over 100 µM.

Question: What about the TGI (TK-10 renal) of the same compound?
Answer: Its TGI is over 100 µM.

Question: And the TGI (M19-MEL melanoma)?
Answer: The TGI was over 100 µM.
